Structures are written as SMILES.

What all share (assay type): cell-based
Assay [1] concerns the target T1, EGFR WT (Homo sapiens, UniProt P00533). Briefly: Activity for inhibiting EGFR (Table A), EGFR WT. The note with it: read-out: EGFR WT, potency code (IC50).
The target in assay [2] is T2, EGFR V3 (Homo sapiens, UniProt P00533, DELINS30-297G).
T2 construct: expressed in transfected cells; host or cells: BaF3 (murine pro-B), retroviral pMXs-IRES-Blasticidin
In words: Activity for inhibiting EGFR (Table A), EGFR V3 (EGFR-Viii). Conditions: read-out: EGFR V3, potency code (IC50).

Assay [3] concerns the target T3, HER2 S310F (Homo sapiens, UniProt P04626, S310F).
T3 construct: expressed in transfected cells; host or cells: BaF3 (murine pro-B)
In words: Activity for inhibiting HER2 (Table B), HER2 S310F. The note with it: read-out: HER2 S310F, potency code (IC50). How it is done:
(§1) EC50 values were determined with the same application.

Assay [4] deals with T4, HER2 YVMA (Homo sapiens, UniProt P04626, INS775YVMA).
T4 construct: expressed in transfected cells; host or cells: BaF3 (murine pro-B)
T4 sequence (P04626 with tags, fused parts or gaps INS775YVMA): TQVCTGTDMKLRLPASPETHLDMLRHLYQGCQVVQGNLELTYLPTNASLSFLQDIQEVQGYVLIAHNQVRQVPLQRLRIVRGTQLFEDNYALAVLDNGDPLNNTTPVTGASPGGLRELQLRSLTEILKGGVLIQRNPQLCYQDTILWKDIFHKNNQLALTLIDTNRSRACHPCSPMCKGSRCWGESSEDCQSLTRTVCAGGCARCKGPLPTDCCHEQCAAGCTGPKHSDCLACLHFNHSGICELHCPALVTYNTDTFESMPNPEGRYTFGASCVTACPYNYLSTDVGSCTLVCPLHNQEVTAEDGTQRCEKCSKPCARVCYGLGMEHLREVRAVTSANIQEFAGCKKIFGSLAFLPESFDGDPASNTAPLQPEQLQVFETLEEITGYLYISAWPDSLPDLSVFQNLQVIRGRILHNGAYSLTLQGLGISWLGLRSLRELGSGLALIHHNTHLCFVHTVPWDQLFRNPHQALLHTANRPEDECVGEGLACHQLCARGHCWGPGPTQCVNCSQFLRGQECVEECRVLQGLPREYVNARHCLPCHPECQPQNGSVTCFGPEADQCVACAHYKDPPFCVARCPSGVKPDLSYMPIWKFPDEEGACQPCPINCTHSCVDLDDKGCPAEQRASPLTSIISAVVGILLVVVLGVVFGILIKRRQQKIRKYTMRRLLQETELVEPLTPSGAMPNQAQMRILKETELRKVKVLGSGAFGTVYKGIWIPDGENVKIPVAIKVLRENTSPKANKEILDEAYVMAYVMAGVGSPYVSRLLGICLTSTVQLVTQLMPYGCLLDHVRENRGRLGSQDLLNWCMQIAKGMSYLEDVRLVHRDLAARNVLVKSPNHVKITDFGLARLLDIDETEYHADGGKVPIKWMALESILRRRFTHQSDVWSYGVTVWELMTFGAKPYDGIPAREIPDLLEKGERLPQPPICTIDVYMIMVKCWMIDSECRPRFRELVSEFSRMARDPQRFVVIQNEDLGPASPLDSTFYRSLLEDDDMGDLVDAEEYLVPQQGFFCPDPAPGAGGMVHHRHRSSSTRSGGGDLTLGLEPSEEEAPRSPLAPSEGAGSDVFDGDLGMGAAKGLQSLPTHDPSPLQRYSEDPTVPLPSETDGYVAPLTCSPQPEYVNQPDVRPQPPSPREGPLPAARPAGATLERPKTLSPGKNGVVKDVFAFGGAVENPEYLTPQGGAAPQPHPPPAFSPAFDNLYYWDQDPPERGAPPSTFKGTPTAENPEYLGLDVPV
In words: Activity for inhibiting HER2 (Table B), HER2 YVMA. The note with it: read-out: HER2 YVMA, potency code (IC50). The protocol:
as §1

Assay [5] deals with T1, EGFR WT. Briefly: BaF3 cell proliferation assay, EGFR WT (Table A). The note with it: potency code, 3 days, CellTiterGlo, read-out: EGFR WT (Activity for Inhibiting EGFR). The method, boiled down: (§2)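 Proliferation read-out is used in BaF3 cells engineered to express each EGFR or HER2 form; EC50 is derived from it. Transduced populations are selected with Blasticidin, washed in PBS and cultured without IL-3.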

Assay [6] addresses T2, EGFR V3. In words: BaF3 cell proliferation assay, EGFR V3 (Table A). Conditions: potency code, 3 days, CellTiterGlo, read-out: EGFR V3 (Activity for Inhibiting EGFR). The method, boiled down: as §2
For orientation: Cellular ATP, detected with luciferase, serves as a proxy for viable cell number.

Assay [7] concerns the target T3, HER2 S310F. Briefly: BaF3 cell proliferation assay, HER2 S310F (Table B). The note with it: potency code, 3 days, CellTiterGlo, read-out: HER2 S310F (Activity for Inhibiting HER2).
Assay [8] addresses T4, HER2 YVMA. In words: BaF3 cell proliferation assay, HER2 YVMA (Table B). The note with it: potency code, 3 days, CellTiterGlo, read-out: HER2 YVMA (Activity for Inhibiting HER2).

T1 sequence (P00533 25-1210 N540K): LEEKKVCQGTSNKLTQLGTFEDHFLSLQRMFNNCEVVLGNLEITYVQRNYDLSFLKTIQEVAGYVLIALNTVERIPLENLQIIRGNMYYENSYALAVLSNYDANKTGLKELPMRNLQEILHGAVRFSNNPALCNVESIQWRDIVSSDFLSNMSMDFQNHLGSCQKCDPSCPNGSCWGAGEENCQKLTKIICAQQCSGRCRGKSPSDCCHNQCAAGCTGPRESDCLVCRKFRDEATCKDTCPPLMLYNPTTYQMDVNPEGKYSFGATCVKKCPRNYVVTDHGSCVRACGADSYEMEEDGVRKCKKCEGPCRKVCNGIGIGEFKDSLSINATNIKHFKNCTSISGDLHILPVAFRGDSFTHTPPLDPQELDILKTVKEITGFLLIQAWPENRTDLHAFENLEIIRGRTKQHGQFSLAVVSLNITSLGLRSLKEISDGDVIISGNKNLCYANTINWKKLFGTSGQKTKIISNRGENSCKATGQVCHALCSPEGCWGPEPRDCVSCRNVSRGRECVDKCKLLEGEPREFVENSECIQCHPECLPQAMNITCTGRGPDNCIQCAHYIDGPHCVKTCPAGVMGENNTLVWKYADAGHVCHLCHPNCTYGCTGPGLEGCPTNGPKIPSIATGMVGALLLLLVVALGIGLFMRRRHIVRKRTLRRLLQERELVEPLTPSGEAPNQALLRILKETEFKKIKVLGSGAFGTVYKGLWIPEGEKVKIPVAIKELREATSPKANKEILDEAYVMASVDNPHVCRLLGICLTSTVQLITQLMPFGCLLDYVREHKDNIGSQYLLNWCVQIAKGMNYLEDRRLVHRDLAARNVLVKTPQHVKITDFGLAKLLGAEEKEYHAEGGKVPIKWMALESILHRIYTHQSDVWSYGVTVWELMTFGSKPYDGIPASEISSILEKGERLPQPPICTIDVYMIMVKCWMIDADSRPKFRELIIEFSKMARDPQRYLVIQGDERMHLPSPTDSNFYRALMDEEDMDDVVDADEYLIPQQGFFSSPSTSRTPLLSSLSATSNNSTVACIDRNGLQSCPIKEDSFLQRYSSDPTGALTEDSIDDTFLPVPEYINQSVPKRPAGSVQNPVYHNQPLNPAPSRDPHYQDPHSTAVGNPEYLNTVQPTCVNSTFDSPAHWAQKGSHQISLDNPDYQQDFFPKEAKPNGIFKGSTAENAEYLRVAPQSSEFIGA
T3 sequence (P04626 23-1255 S310F): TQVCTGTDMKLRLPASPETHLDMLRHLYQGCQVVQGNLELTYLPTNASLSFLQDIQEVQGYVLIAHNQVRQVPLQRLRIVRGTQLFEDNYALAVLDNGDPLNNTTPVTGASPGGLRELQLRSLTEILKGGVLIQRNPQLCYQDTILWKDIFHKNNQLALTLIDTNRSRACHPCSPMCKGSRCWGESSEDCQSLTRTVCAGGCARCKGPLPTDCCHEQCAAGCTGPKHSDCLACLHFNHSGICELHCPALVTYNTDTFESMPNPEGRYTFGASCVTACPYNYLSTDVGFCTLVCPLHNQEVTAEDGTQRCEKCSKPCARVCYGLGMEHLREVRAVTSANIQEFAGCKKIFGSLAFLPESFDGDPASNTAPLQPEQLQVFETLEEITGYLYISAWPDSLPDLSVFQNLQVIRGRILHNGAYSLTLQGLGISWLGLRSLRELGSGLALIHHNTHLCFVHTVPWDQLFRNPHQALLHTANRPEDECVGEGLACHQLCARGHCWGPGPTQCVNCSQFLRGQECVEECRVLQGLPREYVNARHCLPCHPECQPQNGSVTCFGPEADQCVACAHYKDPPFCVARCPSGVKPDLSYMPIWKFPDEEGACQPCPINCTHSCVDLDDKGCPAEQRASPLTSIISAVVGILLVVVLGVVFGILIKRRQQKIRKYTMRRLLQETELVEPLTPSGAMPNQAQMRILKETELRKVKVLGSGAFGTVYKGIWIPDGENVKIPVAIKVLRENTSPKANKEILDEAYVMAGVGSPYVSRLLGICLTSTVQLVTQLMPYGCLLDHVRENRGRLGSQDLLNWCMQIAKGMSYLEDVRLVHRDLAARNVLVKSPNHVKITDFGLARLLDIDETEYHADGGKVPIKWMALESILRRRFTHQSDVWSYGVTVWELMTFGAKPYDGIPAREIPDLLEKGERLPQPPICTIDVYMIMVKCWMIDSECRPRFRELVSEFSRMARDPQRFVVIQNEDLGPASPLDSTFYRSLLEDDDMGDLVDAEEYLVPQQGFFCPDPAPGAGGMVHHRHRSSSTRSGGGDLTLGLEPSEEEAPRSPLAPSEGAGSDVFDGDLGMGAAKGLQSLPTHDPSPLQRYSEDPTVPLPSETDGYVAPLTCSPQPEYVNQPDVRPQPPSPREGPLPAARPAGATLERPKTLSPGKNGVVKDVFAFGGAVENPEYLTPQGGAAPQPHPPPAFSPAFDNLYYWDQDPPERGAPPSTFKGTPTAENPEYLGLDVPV
T2 sequence (P00533 with tags, fused parts or gaps DELINS30-297G): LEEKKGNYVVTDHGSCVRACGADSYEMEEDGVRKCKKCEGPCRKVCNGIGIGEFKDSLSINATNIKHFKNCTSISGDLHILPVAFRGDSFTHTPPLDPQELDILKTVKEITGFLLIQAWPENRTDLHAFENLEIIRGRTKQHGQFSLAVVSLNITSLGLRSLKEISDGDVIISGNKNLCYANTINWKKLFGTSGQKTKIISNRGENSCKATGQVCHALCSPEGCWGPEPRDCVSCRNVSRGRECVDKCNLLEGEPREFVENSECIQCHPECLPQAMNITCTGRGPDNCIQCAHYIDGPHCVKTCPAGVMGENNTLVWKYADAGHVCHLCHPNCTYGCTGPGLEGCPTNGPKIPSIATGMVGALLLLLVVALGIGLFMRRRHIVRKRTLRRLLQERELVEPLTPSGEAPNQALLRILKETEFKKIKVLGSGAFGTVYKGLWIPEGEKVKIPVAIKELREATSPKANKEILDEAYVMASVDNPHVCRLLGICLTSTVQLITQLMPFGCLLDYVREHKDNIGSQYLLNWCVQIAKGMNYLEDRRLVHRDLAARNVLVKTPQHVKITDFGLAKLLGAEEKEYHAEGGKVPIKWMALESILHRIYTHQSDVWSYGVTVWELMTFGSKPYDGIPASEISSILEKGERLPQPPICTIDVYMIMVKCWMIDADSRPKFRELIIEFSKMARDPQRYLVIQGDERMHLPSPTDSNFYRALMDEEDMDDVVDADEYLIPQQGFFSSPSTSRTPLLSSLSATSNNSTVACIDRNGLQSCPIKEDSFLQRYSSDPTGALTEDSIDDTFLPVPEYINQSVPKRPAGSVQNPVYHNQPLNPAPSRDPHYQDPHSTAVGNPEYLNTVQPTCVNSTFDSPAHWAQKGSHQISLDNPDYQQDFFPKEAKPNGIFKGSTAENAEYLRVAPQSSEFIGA

On to `C=CC(=O)Nc1cc2c(Nc3ccc(OCc4cccc(F)c4)c(Cl)c3)ncnc2cc1OCCCN1CC(OC)C1` [compound 144], for which the IC50 is 100 to 200 nM on EGFR WT [1]; 100 to 200 nM on EGFR V3 [2]; 30 to 50 nM on HER2 S310F [3]; 100 to 200 nM on HER2 YVMA [4]; 100 to 200 nM at EGFR WT [5]; 100 to 200 nM at EGFR V3 [6]. Also, the IC50 is 30 to 50 nM at HER2 S310F [7] and 100 to 200 nM at HER2 YVMA [8].

For the compound `C=CC(=O)Nc1cc2c(Nc3cc(Cl)c(OCc4cccc(F)c4)cc3F)ncnc2cc1OCCN1CCN(C)CC1` [compound 145], the IC50 lay in the range of 100 to 200 nM on EGFR WT [1]; 50 to 100 nM on EGFR V3 [2]; 30 to 50 nM at HER2 S310F [3]; 200 to 300 nM on HER2 YVMA [4]; 100 to 200 nM at EGFR WT [5]; 50 to 100 nM at EGFR V3 [6]. For the same compound, the results for the IC50 at HER2 S310F [7] and on HER2 YVMA [8] were 30 to 50 nM and 200 to 300 nM, respectively.

Regarding `CC#CC(=O)Nc1cc2c(Nc3cc(Cl)c(OCc4cccc(F)c4)cc3F)ncnc2cc1OCCN1CCN(C)CC1` [compound 146, N-(4-((5-chloro-2-fluoro-4-((3-fluorobenzyl)oxy)phenyl)amino)-7-(2-(4-methylpiperazin-1-yl)ethoxy)quinazolin-6-yl)but-2-ynamide], the IC50 at EGFR WT [1] was 50 to 100 nM; at EGFR V3 [2], 50 to 100 nM; on HER2 S310F [3], 20 to 30 nM; on HER2 YVMA [4] it was 50 to 100 nM; at EGFR WT [5], 50 to 100 nM; on EGFR V3 [6], 50 to 100 nM. Moreover, the IC50 on HER2 S310F [7] fell in the range of 20 to 30 nM; on HER2 YVMA [8] it was 50 to 100 nM.

Turning to `C=CC(=O)Nc1cc2c(Nc3cc(Cl)c(OCc4cccc(F)c4)cc3F)ncnc2cc1OCCN1CC2CCC(C1)O2` [compound 147], the IC50 on EGFR WT [1] was 500 to 1000 nM; at EGFR V3 [2] it was 50 to 100 nM; on HER2 S310F [3], 50 to 100 nM; at HER2 YVMA [4] it was 200 to 300 nM; at EGFR WT [5], 500 to 1000 nM; at EGFR V3 [6] it was 50 to 100 nM. For the same compound, the IC50 at HER2 S310F [7] lay within 50 to 100 nM; at HER2 YVMA [8], 200 to 300 nM.

As to `CC#CC(=O)Nc1cc2c(Nc3cc(Cl)c(OCc4cccc(F)c4)cc3F)ncnc2cc1OCCN1CC2CCC(C1)O2` [compound 148, N-(7-(2-(8-oxa-3-azabicyclo[3.2.1]octan-3-yl)ethoxy)-4-((5-chloro-2-fluoro-4-((3-fluorobenzyl)oxy)phenyl)amino)quinazolin-6-yl)but-2-ynamide], the IC50 on EGFR WT [1] fell in the range of 200 to 300 nM; on EGFR V3 [2], 100 to 200 nM; at HER2 S310F [3], 20 to 30 nM; at HER2 YVMA [4], 50 to 100 nM; at EGFR WT [5], 200 to 300 nM; on EGFR V3 [6] it was 100 to 200 nM. The IC50 at HER2 S310F [7] lay within 20 to 30 nM; at HER2 YVMA [8], 50 to 100 nM.

Regarding `CC#CC(=O)Nc1cc2c(Nc3cc(Cl)c(OCc4cccc(F)c4)cc3F)ncnc2cc1OCCN1CCOCC1` [compound 149, N-(4-((5-chloro-2-fluoro-4-((3-fluorobenzyl)oxy)phenyl)amino)-7-(2-morpholinoethoxy)quinazolin-6-yl)but-2-ynamide], the IC50 at EGFR WT [1] was 100 to 200 nM; on EGFR V3 [2] it was 50 to 100 nM; at HER2 S310F [3], 10 to 20 nM; on HER2 YVMA [4], 30 to 50 nM; on EGFR WT [5], 100 to 200 nM; at EGFR V3 [6] it was 50 to 100 nM. The values for the IC50 on HER2 S310F [7] and at HER2 YVMA [8] were 10 to 20 nM and 30 to 50 nM, respectively.

Regarding `CC#CC(=O)Nc1cc2c(Nc3cc(Cl)c(OCc4cccc(F)c4)cc3F)ncnc2cc1OCCCN1CCOCC1` [compound 150, N-(4-((5-chloro-2-fluoro-4-((3-fluorobenzyl)oxy)phenyl)amino)-7-(3-morpholinopropoxy)quinazolin-6-yl)but-2-ynamide], the IC50 on EGFR WT [1] is 200 to 300 nM; on EGFR V3 [2], 50 to 100 nM; on HER2 S310F [3], 10 to 20 nM; on HER2 YVMA [4], 30 to 50 nM; at EGFR WT [5], 200 to 300 nM; at EGFR V3 [6], 50 to 100 nM. The IC50 is 10 to 20 nM on HER2 S310F [7] and 30 to 50 nM at HER2 YVMA [8].

Source of the values: patent publication US11034672B1, “Tyrosine kinase inhibitor compositions, methods of making and methods of use” (Black Diamond Therapeutics, Inc., priority 2018, dated 2021).
